How the values were obtained:
[1] = chemicals of externally-applied lavender or tea tree oils; NIH 2018; cited from earlier work
[2] = Taste and/or aroma of Diet Coke after adding the substance (opinions of a few people); conditions: for taste and/or aroma of Diet Coke after adding the substance: substance alone added to about 220 ml (7.5 ounces) Diet Coke, room temperature
Text: For the embodiments disclosed herein, the signifier “aroma” is used in preference to its synonyms: smell and odor (which have negative connotations), and scent (which has perfume connotations). The signifier “taste” is mostly used herein, and to a lesser extent, “flavor”, which often signifies a specific “taste”.
Taste and aroma are not separate sensory experiences. […] This is attributed to the odor sensors in the nose being blocked. […] Thus, in many of the embodiments disclosed herein, the term “taste and/or aroma” is used.
For the exemplary embodiments that follow, the examples are performed with all liquids at room temperature. Sodas typically taste more flavorful at lower temperatures (sodas retain carbonation better at lower temperatures, which creates a better taste for many people). […] Tastes and/or aromas can also vary due to the use of soda container: glass, plastic or metal. There are many who think that cola sodas taste best when consumed from glass bottles. For many of the exemplary embodiments disclosed herein, Bodum Pavina Coffee Mugs, double-wall insulated glass mugs, 8 ounce size, are used.
One embodiment of an improved diet cola beverage product is understood with the following exemplary method and resulting exemplary article of manufacture. […] Any coca leaf extract with similar chemical components to ERC-A20 can be used—coca leaf extracts discussed below.

[3] = cited from earlier work
[4] = as sweet as sucrose; cited from earlier work

SMILES	contribution to abnormal breast growth (potential hormone disruptor) [1]	taste and/or aroma of Diet Coke after adding the substance [2]	further results
CC1=CCC(O)(C(C)C)CC1 (centres unmarked) [4-terpineol]	probably contributed to the abnormal breast growth	–	–
CC1=CC=C(C(C)C)CC1 [alpha-terpinene]	probably contributed to the abnormal breast growth	–	–
CC1=CCC(C(C)(C)O)CC1 (stereo not drawn) [alpha-terpineol]	probably contributed to the abnormal breast growth	more pleasant	–
CCOC(=O)c1ccccc1 [ethyl benzoate]	–	more pleasant than that of untreated Diet Coke	solubility in water [3]: 500 micrograms/milliliter
CC12CCC(CC1)C(C)(C)O2 [eucalyptol]	probably contributed to the abnormal breast growth	–	–
CC1=CCC(C(C)C)=CC1 [gamma-terpinene]	–	while more pleasant as seen with adding alpha-terpineol, also has less of a “coca cola” taste	–
C=C(C)[C@H]1CC=C(C)CC1 [limonene]	probably contributed to the abnormal breast growth	–	–
C=CC(C)(O)CCC=C(C)C (centres unmarked) [linalool]	probably contributed to the abnormal breast growth	little-to-no change in the unpleasant	–
C=CC(C)(CCC=C(C)C)OC(C)=O (centres unmarked) [linalyl acetate]	probably contributed to the abnormal breast growth	–	–
COC(=O)c1ccccc1 [methyl benzoate]	–	improvement in Diet Coke taste similar to that of ethyl benzoate	–
O=C([O-])c1ccccc1.[Na+] [sodium benzoate, reference compound]	–	No improvement	–
O=S(=O)([O-])NC1CCCCC1.[Na+] [sodium cyclamate]	–	–	taste test preference, added to Diet Coke versus added to Coca-Cola Zero ([2]; some taste tests, Diet Coke (total 2 artificial sweeteners) vs Coca-Cola Zero (3 artificial sweeteners)): more preferred
OC[C@@H](O)[C@@H](O)[C@H](O)[C@@H](O)CO [sorbitol]	–	–	sweetness relative to sucrose [4]: about 60%
OC[C@H]1O[C@@](CO)(O[C@H]2O[C@H](CO)[C@@H](O)[C@H](O)[C@H]2O)[C@@H](O)[C@@H]1O [sugar]	–	–	taste of resulting beverage, sweetener added together with coca leaf extract ([2]; 220 ml Diet Coke + one teaspoon coca leaf extract + sweetener (about one bag Sugar Twin; one to two bags sugar)): more pleasant tasting Diet Coke soda

From US20200305471A1, “METHODS AND COMPOSITIONS FOR IMPROVING THE TASTE OF DIET COLA SODAS AND OTHER BEVERAGES” (priority 2017, published 2020)
